Legend:
[1] = Metabolic stability in human liver microsomes assessed as half life; format: ADME, Microsome
[2] = Cmax in Sprague-Dawley rat at 10 mg/kg, po measured […] by LC-MS/MS analysis; format: ADME, organism-based; conditions: in vivo
[3] = Cmax in Sprague-Dawley rat at 2 mg/kg, iv measured […] by LC-MS/MS analysis; format: ADME, organism-based; conditions: in vivo
[4] = Tmax in Sprague-Dawley rat at 10 mg/kg, po measured […] by LC-MS/MS analysis; format: ADME, organism-based; conditions: in vivo
[5] = Half life in Sprague-Dawley rat at 2 mg/kg, iv measured upto 60 mins by LC-MS/MS analysis; format: ADME, organism-based; conditions: in vivo
[6] = AUC (0 to t) in Sprague-Dawley rat at 10 mg/kg, po measured upto 60 mins by LC-MS/MS analysis; format: ADME, organism-based; conditions: in vivo
[7] = AUC (0 to t) in Sprague-Dawley rat at 2 mg/kg, iv measured upto 60 mins by LC-MS/MS analysis; format: ADME, organism-based; conditions: in vivo
[8] = Tmax in Sprague-Dawley rat at 2 mg/kg, iv measured […] by LC-MS/MS analysis; format: ADME, organism-based; conditions: in vivo
[9] = Metabolic stability in human liver microsomes assessed as intrinsic clearance; format: ADME, Microsome; conditions: read-out: CLH
[10] = Oral bioavailability in Sprague-Dawley rat at 10 mg/kg measured […] by LC-MS/MS analysis; format: ADME, organism-based; conditions: in vivo

half-life [1]: 6.2 min
Cmax [2]: 8 ng/mL
Cmax [3]: 1320 ng/mL
Tmax [4]: 48 min
half-life [5]: 12 min
AUC(0-t) at 1 h [6]: 12 ng·h/mL
AUC(0-t) at 1 h [7]: 387 ng·h/mL
Tmax [8]: 6 min
CLint scaled [9]: 143 mL/min/kg
bioavailability [10]: 0.6%
Structure (SMILES): CCc1ccc(NC(=O)Nc2c[nH]c3ccccc23)cc1
